# Laboratory results from PMC4619705 (PLoS ONE, 2015).
# pEC50: −log10 of the molar value. Entries after “also recorded” stand apart in the source; their conditions may differ.
# Key:
# Type in all cases: cell-based
# [1] = target: T1, γ2L homomeric receptors (Homo sapiens, UniProt P18507); assay: Two-electrode voltage clamp of γ2L homomeric receptors expressed in Xenopus oocytes; settings: 100 μM
# T1 construct: expressed in transfected cells; host or cells: Xenopus laevis oocytes injected with γ2L mRNA alone (high amounts)
# T1 sequence (P18507 40-475): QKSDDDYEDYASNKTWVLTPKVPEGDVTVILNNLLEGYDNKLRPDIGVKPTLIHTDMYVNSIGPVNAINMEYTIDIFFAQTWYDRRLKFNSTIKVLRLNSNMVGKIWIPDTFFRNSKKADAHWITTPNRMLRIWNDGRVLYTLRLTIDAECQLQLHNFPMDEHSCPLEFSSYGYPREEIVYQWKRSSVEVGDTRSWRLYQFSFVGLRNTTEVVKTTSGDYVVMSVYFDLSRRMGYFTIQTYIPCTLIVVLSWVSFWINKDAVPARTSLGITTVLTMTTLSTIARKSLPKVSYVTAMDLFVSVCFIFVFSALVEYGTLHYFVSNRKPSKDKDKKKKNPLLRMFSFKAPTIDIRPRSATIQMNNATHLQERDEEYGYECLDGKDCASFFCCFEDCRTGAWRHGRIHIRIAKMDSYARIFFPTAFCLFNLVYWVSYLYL
# From the text: (§1) Human complementary DNA (cDNA) of GABAAR α2 subunit (vector: pCMV6-XL5) was purchased from OriGene Technologies (Rockville, MD, USA), and the human β3 (vector: pGEMHE) and γ2L (vector: pCDM8) subunits were generous gifts from Dr. Bjarke Ebert (H. Lundbeck A/S, Valby, Denmark) and Dr. Paul Whiting (Merck, Sharp and Dohme Research Laboratories, Harlow, Essex, UK) respectively. […] Plasmid vectors with the cDNA incorporated were linearised using appropriate restriction endonucleases (α2: SmaI; β3: NheI; γ2L: NotI). Capped RNA transcripts were synthesised from linearised plasmids using the mMessage mMachine T7 transcript kit from Ambion (Austin, TX, USA). Purified messenger RNA (mRNA) was dissolved in nuclease-free water (Ambion, Austin, TX, USA), and its quality was assessed using 1% agarose gel electrophoresis. The concentration of each subunit mRNA was measured using Nanodrop ND-100 UV-Vis spectrophotometer (Thermo Fisher Scientific, North Ryde, NSW, Australia).
# (§2) Various combinations of α2, β3 and γ2L subunit mRNAs were mixed to different ratios as stated in the text, and diluted accordingly to a concentration of 5 ng/μL (unless otherwise stated). […] Injected oocytes were stored in ND96 storage solution supplemented with 50 μg/mL gentamycin and tetracycline at 18°C. Two-electrode voltage clamp recordings were performed on oocytes 2–4 days post-injection at room temperature (20–25°C) using a GeneClamp 500B amplifier (ADInstruments, Sydney, NSW, Australia) or a Warner OC-725C Oocyte Clamp (Warner Instrument Corp, Hamden, CT, USA). All experiments were conducted at a holding potential of –60 mV, and data were acquired with a PowerLab 2/25, and LabChart (version 5.0.2) software (ADInstruments, Sydney, NSW, Australia). The recording microelectrodes (0.2–1.1 MΩ) were generated from capillary glass (Harvard Apparatus, Holliston, MA, USA) using a single-stage glass microelectrode puller (Narishige, Tokyo, Japan), and were filled with 3 M KCl solution. The perfusion system was built using a series of polycarbonate, high-density polyethylene two-way stopcocks (Qosina, Edgewood, NY, USA), connected through tubing to the recording chamber (100 μL), where the oocyte was continuously perfused with ND96 recording solution (96 mM NaCl, 2 mM KCl, 1 mM MgCl2, 1.8 mM CaCl2, 5 mM HEPES hemisodium; pH 7.4) at an approximate rate of 5 mL/min.
# (§3) Perfusates containing these chemicals were made up fresh before each application. The concentration-response curves of agonists were obtained by exposing oocytes to increasing concentrations of agonists until the currents peaked. […] All experiments were performed using at least two different batches of oocytes.
# [2] = target: T2, α2γ2L receptors (Homo sapiens, UniProt P18507+P47869); assay: Two-electrode voltage clamp of binary α2γ2L receptors expressed in Xenopus oocytes
# T2 construct: expressed in transfected cells; host or cells: Xenopus laevis oocytes injected with α2 and γ2L mRNAs
# T2 sequence (P18507 40-475, one chain of several): as the sequence (P18507 40-475) above
# From the text: as §1, §2, §3
# [3] = target: T3, β3γ2L GABAARs (Homo sapiens, UniProt P18507+P28472); assay: Two-electrode voltage clamp of β3γ2L GABAARs expressed at various β3:γ2L mRNA ratios in Xenopus oocytes; settings: for pEC50: EC50 (95% CI) of direct activation; for Effect of Zn2+ alone on baseline current: 100 μM
# T3 construct: expressed in transfected cells; host or cells: Xenopus laevis oocytes injected with β3 and γ2L mRNAs at 1:1 to 1:100
# T3 sequence (P18507 40-475, one chain of several): as the sequence (P18507 40-475) above
# From the text: as §1
# as §2, with “All experiments were conducted at a holding potential of –60 mV, and data were acquired with a PowerLab 2/25, and LabChart (version 5.0.2) software (ADInstruments, Sydney, NSW, Australia).” left out
# as §3
# (§4) Prism (version 5.04; GraphPad Software, La Jolla, CA, USA) was used for data analysis.
# (§5) In all cases, we constrained the bottom to 0, and when fitting data to the biphasic model, the Hill slopes were constrained to 1. Statistical comparisons of results for different injection ratios of β3γ2L receptors were performed using ANOVA with Tukey’s post-hoc test. When comparing results from different injection ratios of β3γ2L receptors with α2β3γ2L receptors, the ANOVA Dunnett’s test was used. Pairwise comparisons were performed using Student’s t test. Statistical significance was attained at p < 0.05.
# [4] = target: T4, β3 homomeric receptors (Homo sapiens, UniProt P28472); assay: Two-electrode voltage clamp of β3 homomeric receptors expressed in Xenopus oocytes; settings: β3 homomeric receptors; 0.1–300 μM etomidate
# T4 construct: expressed in transfected cells; host or cells: Xenopus laevis oocytes injected with β3 mRNA (5 ng/oocyte)
# T4 sequence (P28472 26-473): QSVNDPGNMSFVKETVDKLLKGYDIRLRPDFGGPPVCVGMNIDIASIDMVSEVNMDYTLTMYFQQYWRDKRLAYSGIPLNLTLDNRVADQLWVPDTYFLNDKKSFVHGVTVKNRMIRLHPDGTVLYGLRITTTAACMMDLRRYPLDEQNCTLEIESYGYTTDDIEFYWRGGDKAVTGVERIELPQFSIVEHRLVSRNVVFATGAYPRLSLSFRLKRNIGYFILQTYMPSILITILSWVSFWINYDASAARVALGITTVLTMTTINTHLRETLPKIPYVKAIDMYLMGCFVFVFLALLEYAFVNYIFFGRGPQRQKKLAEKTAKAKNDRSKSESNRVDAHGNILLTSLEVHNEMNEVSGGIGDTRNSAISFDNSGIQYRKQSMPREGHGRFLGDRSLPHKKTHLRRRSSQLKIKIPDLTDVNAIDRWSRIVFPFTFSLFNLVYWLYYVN
# From the text: as §1, §2, §3
# Prism (version 5.04; GraphPad Software, La Jolla, CA, USA) was used for data analysis. […]
# [5] = target: T5, α2β3 GABAARs (Homo sapiens, UniProt P28472+P47869); assay: Two-electrode voltage clamp of binary α2β3 GABAARs expressed in Xenopus oocytes; settings: α2β3 20:1; 100 μM
# T5 construct: expressed in transfected cells; host or cells: Xenopus laevis oocytes injected with capped mRNA, α2:β3 20:1
# T5 sequence (P47869 29-451): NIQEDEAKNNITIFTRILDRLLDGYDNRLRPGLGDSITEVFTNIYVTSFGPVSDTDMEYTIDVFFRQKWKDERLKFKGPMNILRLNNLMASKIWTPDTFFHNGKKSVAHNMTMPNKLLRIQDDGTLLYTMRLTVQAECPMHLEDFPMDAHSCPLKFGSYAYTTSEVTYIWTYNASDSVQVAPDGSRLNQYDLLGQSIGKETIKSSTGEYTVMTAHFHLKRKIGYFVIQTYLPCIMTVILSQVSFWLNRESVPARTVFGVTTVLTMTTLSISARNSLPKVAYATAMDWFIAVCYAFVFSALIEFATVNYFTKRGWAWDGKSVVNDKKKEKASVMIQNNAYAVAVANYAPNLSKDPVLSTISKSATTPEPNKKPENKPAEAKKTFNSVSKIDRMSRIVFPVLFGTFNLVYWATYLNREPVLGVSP
# T5 sequence (P28472 26-473): T4 sequence (P28472 26-473)
# From the text: as §1, §2, §3, §4, §5
compound,measurement,setting,value
CCOC(=O)c1cncn1[C@H](C)c1ccccc1 [Etomidate],Direct activation by etomidate,[1]; γ2L alone,not sensitive; also recorded: did not activate
same,Direct activation by etomidate,"[2]; α2γ2L, data not shown",did not activate
same,E max ± SEM (300 μM etomidate-elicited current normalised against 3 mM GABA response),"[3]; β3γ2L 1:15, -30 mV",9.9 ± 0.84
same,n H ± SEM (Hill slope) of direct activation,"[3]; β3γ2L 1:15, -30 mV",1.3 ± 0.33
same,E max ± SEM (30 μM etomidate-elicited current normalised against 3 mM GABA response),"[3]; β3γ2L 1:15, -60 mV",20 ± 1.8
same,n H ± SEM (Hill slope) of direct activation,"[3]; β3γ2L 1:15, -60 mV",2.0 ± 0.32
same,E max ± SEM (300 μM etomidate-elicited current normalised against 3 mM GABA response),"[3]; β3γ2L 1:50, -60 mV",5.5 ± 0.80
same,n H ± SEM (Hill slope) of direct activation,"[3]; β3γ2L 1:50, -60 mV",1.3 ± 0.37
same,E max ± SEM (300 μM etomidate-elicited current normalised against 3 mM GABA response),"[3]; β3γ2L 1:100, -30 mV",2.8 ± 0.50
same,n H ± SEM (Hill slope) of direct activation,"[3]; β3γ2L 1:100, -30 mV",1.2 ± 0.50
same,E max ± SEM (300 μM etomidate-elicited current normalised against 3 mM GABA response),"[3]; β3γ2L 1:100, -60 mV",3.2 ± 0.40
same,n H ± SEM (Hill slope) of direct activation,"[3]; β3γ2L 1:100, -60 mV",1.5 ± 0.46
same,"E max, normalised against 60 mM GABA",[4],15 ± 0.79
CC(C)c1cccc(C(C)C)c1O [Propofol],pEC50,"[3]; β3γ2L 1:15, -60 mV",4.07
same,pEC50,"[3]; β3γ2L 1:100, -60 mV",4.13
same,E max ± SEM (300 μM propofol-elicited current normalised against 3 mM GABA response),"[3]; β3γ2L 1:15, -60 mV",5.7 ± 0.55
same,n H ± SEM (Hill slope) of direct activation,"[3]; β3γ2L 1:15, -60 mV",1.4 ± 0.50
same,E max ± SEM (300 μM propofol-elicited current normalised against 3 mM GABA response),"[3]; β3γ2L 1:15, -60 mV, listed as propofol",approximately 6
same,E max ± SEM (300 μM propofol-elicited current normalised against 3 mM GABA response),"[3]; β3γ2L 1:100, -60 mV",0.64 ± 0.23
same,n H ± SEM (Hill slope) of direct activation,"[3]; β3γ2L 1:100, -60 mV",2.0 ± 1.2
"[Cl-].[Cl-].[Zn+2] [Zn^2+, zinc chloride]",Effect of Zn2+ alone on constitutive activity,[1]; 28–35 ng/oocyte,inhibited
same,Effect of Zn2+ alone,"[2]; α2γ2L 1:1, 100 μM",no function
same,Effect of Zn2+ alone on baseline current,[3]; β3γ2L 1:15,reduction in inward current; also recorded: sensitive to the inhibition
same,Effect of Zn2+ alone on baseline current,[3]; β3γ2L 1:50,did not have any effects
same,Effect of Zn2+ alone on baseline current,[3]; β3γ2L 1:100,did not have any effects
same,Effect of Zn2+ alone on baseline current,[5],lack of activity
